Legend:
[1] = target: T1, RORγ-LBD (Homo sapiens, UniProt P51449); assay: RORγ-Ligand Binding Domain (LBD) TR-FRET Assay; assay type: biochemical; details: RORγ-LBD TR-FRET
T1 construct: made in house; host or cells: SF9 cells (baculovirus); used as diluted lysate
T1 sequence (P51449 269-508 limits assumed): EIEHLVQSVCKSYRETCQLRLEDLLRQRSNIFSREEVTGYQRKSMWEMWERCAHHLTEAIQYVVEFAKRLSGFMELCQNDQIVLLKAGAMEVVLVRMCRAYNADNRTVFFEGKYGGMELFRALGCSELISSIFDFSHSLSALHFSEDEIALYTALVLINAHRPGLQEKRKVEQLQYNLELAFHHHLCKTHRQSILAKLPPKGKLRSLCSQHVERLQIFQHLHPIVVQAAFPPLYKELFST
Summary of the method: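 His-tagged RORγ-LBD from SF9 baculovirus lysate, ~3 nM final, in 50 mM Tris pH 7.0, 50 mM KCl, 1 mM EDTA, 0.1 mM DTT, 0.01% BSA. Biotinylated SRC1 LXXLL peptide at 200 nM final with 2 μM ursolic acid; TR-FRET read-out, 1% DMSO final.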

[2] = target: T2, Gal4-RORγ-LBD (Homo sapiens, UniProt P51449); assay: Gal4-RORγ Luciferase Reporter Assay in HEK-293T Cells; assay type: cell-based; details: HEK-293 cells, luciferase reporter, with ursolic acid
T2 construct: expressed in transfected cells
T2 sequence (P51449 269-508 limits assumed): T1 sequence (P51449 269-508 limits assumed)
Summary of the method: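 HEK-293 cells were co-transfected with Gal4-RORγ-LBD and a Gal4-luciferase reporter, then exposed overnight at 37 °C to compounds with […] ursolic acid present (0.2% DMSO). Luminescence was read with One-Glo after 10 min at RT, untreated signal was set as 100, and Max Response was taken as the upper plateau of a 4-parameter logistic fit.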

Structure (SMILES)	EC50 [1]	EC50 [2]
C/C(=C\c1cc2c(cc1Cl)O[C@@H](CCC(=O)O)CN2S(=O)(=O)c1cccc(OC(F)F)c1)c1c(F)cccc1Cl [Example 48, (S,E)-3-(6-(2-(2-Chloro-6-fluorophenyl)prop-1-en-1-yl)-4-((3-(difluoromethoxy)phenyl)sulfonyl)-7-chloro-3,4-dihydro-2H-benzo[b][1,4]oxazin-2-yl)propanoate]	500 to 5000 nM	< 500 nM
C/C(=C\c1cc2c(cc1C)O[C@@H](CCC(=O)O)CN2S(=O)(=O)c1cccc(C(F)(F)F)c1)c1c(F)cccc1Cl [Example 56, (S,E)-3-(6-(2-(2-Chloro-6-fluorophenyl)prop-1-en-1-yl)-7-methyl-4-((3-(trifluoromethyl)phenyl)sulfonyl)-3,4-dihydro-2H-benzo[b][1,4]oxazin-2-yl)propanoic acid]	< 500 nM	> 10000 nM
COC(=O)CC[C@H]1CN(S(=O)(=O)c2cccc(C(F)(F)F)c2)c2c(ccc(/C=C(\C)c3c(F)cccc3Cl)c2C)O1 [Example 57, Methyl (S,E)-3-(6-(2-(2-chloro-6-fluorophenyl)prop-1-en-1-yl)-5-methyl-4-((3-(trifluoromethyl)phenyl)sulfonyl)-3,4-dihydro-2H-benzo[b][1,4]oxazin-2-yl)propanoate]	< 500 nM	> 10000 nM
C/C(=C\c1ccc2c(c1C)N(S(=O)(=O)c1cccc(C(F)(F)F)c1)C[C@H](CCC(=O)O)O2)c1c(F)cccc1Cl [Example 58, (S,E)-3-(6-(2-(2-Chloro-6-fluorophenyl)prop-1-en-1-yl)-5-methyl-4-((3-(trifluoromethyl)phenyl)sulfonyl)-3,4-dihydro-2H-benzo[b][1,4]oxazin-2-yl)propanoic acid]	< 500 nM	500 to 5000 nM
COC(=O)CC[C@H]1CN(S(=O)(=O)c2cccc(OC(F)F)c2)c2c(ccc(/C=C(\C)c3c(F)cccc3Cl)c2C)O1 [Example 59, Methyl (S,E)-3-(6-(2-(2-chloro-6-fluorophenyl)prop-1-en-1-yl)-4-((3-(difluoromethoxy)phenyl)sulfonyl)-5-methyl-3,4-dihydro-2H-benzo[b][1,4]oxazin-2-yl)propanoate]	< 500 nM	500 to 5000 nM
C/C(=C\c1ccc2c(c1C)N(S(=O)(=O)c1cccc(OC(F)F)c1)C[C@H](CCC(=O)O)O2)c1c(F)cccc1Cl [Example 60, (S,E)-3-(6-(2-(2-Chloro-6-fluorophenyl)prop-1-en-1-yl)-4-((3-(difluoromethoxy)phenyl)sulfonyl)-5-methyl-3,4-dihydro-2H-benzo[b][1,4]oxazin-2-yl)propanoic acid]	< 500 nM	500 to 5000 nM
COC(=O)CC[C@H]1CN(S(=O)(=O)c2cccc(C(F)(F)F)c2)c2c(ccc(/C=C(\C)c3c(F)cccc3Cl)c2F)O1 [Example 61, Methyl (S,E)-3-(6-(2-(2-chloro-6-fluorophenyl)prop-1-en-1-yl)-5-fluoro-4-((3-(trifluoromethyl)phenyl)sulfonyl)-3,4-dihydro-2H-benzo[b][1,4]oxazin-2-yl)propanoate]	< 500 nM	500 to 5000 nM
C/C(=C\c1ccc2c(c1F)N(S(=O)(=O)c1cccc(C(F)(F)F)c1)C[C@H](CCC(=O)O)O2)c1c(F)cccc1Cl [Example 62, (S,E)-3-(6-(2-(2-Chloro-6-fluorophenyl)prop-1-en-1-yl)-5-fluoro-4-((3-(trifluoromethyl)phenyl)sulfonyl)-3,4-dihydro-2H-benzo[b][1,4]oxazin-2-yl)propanoic acid]	< 500 nM	500 to 5000 nM
COC(=O)CC[C@H]1CN(S(=O)(=O)c2cccc(OC(F)F)c2)c2c(ccc(/C=C(\C)c3c(F)cccc3Cl)c2F)O1 [Example 63, Methyl (S,E)-3-(6-(2-(2-chloro-6-fluorophenyl)prop-1-en-1-yl)-4-((3-(difluoromethoxy)phenyl)sulfonyl)-5-fluoro-3,4-dihydro-2H-benzo[b][1,4]oxazin-2-yl)propanoate]	< 500 nM	500 to 5000 nM
C/C(=C\c1ccc2c(c1F)N(S(=O)(=O)c1cccc(OC(F)F)c1)C[C@H](CCC(=O)O)O2)c1c(F)cccc1Cl [Example 64, (S,E)-3-(6-(2-(2-Chloro-6-fluorophenyl)prop-1-en-1-yl)-4-((3-(difluoromethoxy)phenyl)sulfonyl)-5-fluoro-3,4-dihydro-2H-benzo[b][1,4]oxazin-2-yl)propanoic acid]	< 500 nM	500 to 5000 nM
CCOc1ncc(Cl)cc1S(=O)(=O)N1C[C@H](CCC(=O)OC)Oc2ccc(/C=C(\C)c3c(F)cccc3Cl)cc21 [Example 67, Methyl (S,E)-3-(4-((5-chloro-2-ethoxypyridin-3-yl)sulfonyl)-6-(2-(2-chloro-6-fluorophenyl)prop-1-en-1-yl)-3,4-dihydro-2H-benzo[b][1,4]oxazin-2-yl)propanoate]	< 500 nM	500 to 5000 nM
CCOc1ncc(Cl)cc1S(=O)(=O)N1C[C@H](CCC(=O)O)Oc2ccc(/C=C(\C)c3c(F)cccc3Cl)cc21 [Example 68, (S,E)-3-(4-((5-Chloro-2-ethoxypyridin-3-yl)sulfonyl)-6-(2-(2-chloro-6-fluorophenyl)prop-1-en-1-yl)-3,4-dihydro-2H-benzo[b][1,4]oxazin-2-yl)propanoic acid]	< 500 nM	500 to 5000 nM

Next, values leading:

EC50 [1]	EC50 [2]	Structure (SMILES)
< 500 nM	< 500 nM	C/C(=C\c1cc2c(cc1Cl)O[C@@H](CCC(=O)O)CN2S(=O)(=O)c1cccc(C(F)(F)F)c1)c1c(F)cccc1Cl [Example 46, (S,E)-3-(7-Chloro-6-(2-(2-chloro-6-fluorophenyl)prop-1-en-1-yl)-4-((3-(trifluoromethyl)phenyl)sulfonyl)-3,4-dihydro-2H-benzo[b][1,4]oxazin-2-yl)propanoic acid]
< 500 nM	5000 to 10000 nM	COC(=O)CC[C@H]1CN(S(=O)(=O)c2cccc(OC(F)F)c2)c2cc(/C=C(\C)c3c(F)cccc3Cl)c(Cl)cc2O1 [Example 47, (S,E)-Methyl 3-(6-(2-(2-chloro-6-fluorophenyl)prop-1-en-1-yl)-4-((3-(difluoromethoxy)phenyl)sulfonyl)-7-chloro-3,4-dihydro-2H-benzo[b][1,4]oxazin-2-yl)propanoate]
< 500 nM	500 to 5000 nM	COC(=O)CC[C@H]1CN(S(=O)(=O)c2cccc(C(F)(F)F)c2)c2cc(/C=C(\C)c3c(F)cccc3Cl)cc(F)c2O1 [Example 49, (S,E)-Methyl 3-(6-(2-(2-chloro-6-fluorophenyl)prop-1-en-1-yl)-8-fluoro-4-((3-(trifluoromethyl)phenyl)sulfonyl)-3,4-dihydro-2H-benzo[b][1,4]oxazin-2-yl)propanoate]
< 500 nM	< 500 nM	C/C(=C\c1cc(F)c2c(c1)N(S(=O)(=O)c1cccc(C(F)(F)F)c1)C[C@H](CCC(=O)O)O2)c1c(F)cccc1Cl [Example 50, (S,E)-3-(6-(2-(2-Chloro-6-fluorophenyl)prop-1-en-1-yl)-8-fluoro-4-((3-(trifluoromethyl)phenyl)sulfonyl)-3,4-dihydro-2H-benzo[b][1,4]oxazin-2-yl)propanoic acid]
< 500 nM	< 500 nM	COC(=O)CC[C@H]1CN(S(=O)(=O)c2cccc(OC(F)F)c2)c2cc(/C=C(\C)c3c(F)cccc3Cl)cc(F)c2O1 [Example 51, Methyl (S,E)-3-(6-(2-(2-chloro-6-fluorophenyl)prop-1-en-1-yl)-4-((3-(difluoromethoxy)phenyl)sulfonyl)-8-fluoro-3,4-dihydro-2H-benzo[b][1,4]oxazin-2-yl)propanoate]
< 500 nM	500 to 5000 nM	C/C(=C\c1cc(F)c2c(c1)N(S(=O)(=O)c1cccc(OC(F)F)c1)C[C@H](CCC(=O)O)O2)c1c(F)cccc1Cl [Example 52, (S,E)-3-(6-(2-(2-Chloro-6-fluorophenyl)prop-1-en-1-yl)-4-((3-(difluoromethoxy)phenyl)sulfonyl)-8-fluoro-3,4-dihydro-2H-benzo[b][1,4]oxazin-2-yl)propanoic acid]
< 500 nM	500 to 5000 nM	COC(=O)CC[C@H]1CN(S(=O)(=O)c2cccc(OC(F)F)c2)c2cc(/C=C(\C)c3c(F)cccc3Cl)c(C)cc2O1 [Example 53, (S,E)-Methyl 3-(6-(2-(2-chloro-6-fluorophenyl)prop-1-en-1-yl)-4-((3-(difluoromethoxy)phenyl)sulfonyl)-7-methyl-3,4-dihydro-2H-benzo[b][1,4]oxazin-2-yl)propanoate]
< 500 nM	500 to 5000 nM	C/C(=C\c1cc2c(cc1C)O[C@@H](CCC(=O)O)CN2S(=O)(=O)c1cccc(OC(F)F)c1)c1c(F)cccc1Cl [Example 54, (S,E)-3-(6-(2-(2-Chloro-6-fluorophenyl)prop-1-en-1-yl)-4-((3-(difluoromethoxy)phenyl)sulfonyl)-7-methyl-3,4-dihydro-2H-benzo[b][1,4]oxazin-2-yl)propanoic acid]
< 500 nM	< 500 nM	COC(=O)CC[C@H]1CN(S(=O)(=O)c2cccc(C(F)(F)F)c2)c2cc(/C=C(\C)c3c(F)cccc3Cl)c(C)cc2O1 [Example 55, Methyl (S,E)-3-(6-(2-(2-chloro-6-fluorophenyl)prop-1-en-1-yl)-7-methyl-4-((3-(trifluoromethyl)phenyl)sulfonyl)-3,4-dihydro-2H-benzo[b][1,4]oxazin-2-yl)propanoate]
